From ChEMBL document CHEMBL5137049, “Discovery of a Novel Small-Molecule Inhibitor Disrupting TRBP-Dicer Interaction against Hepatocellular Carcinoma via the Modulation of microRNA Biogenesis” (J Med Chem, 2022)
The source made the active and inactive calls. The calls are words filed in the database; no cut-off is given here.

Tests used:
SK-HEP1 [1] = experiment: Upregulation of PTEN protein expression in human SK-HEP1 cells incubated for 24 hrs by Western blotting analysis; format: functional, cell-based; conditions: dose 1-50 µM, DDE = dose-dependent effect
[2] = Acute toxicity in KM mouse assessed as effect on heart at 100 mg/kg, ip administered for 7 consecutive days by hematoxyin-eosin staining based analysis; format: organism-based; conditions: in vivo, 168 h, time 7 day
SK-HEP1 [3] = experiment: Upregulation of PDCD4 protein expression in human SK-HEP1 cells incubated for 24 hrs by Western blotting analysis; format: functional, cell-based; conditions: dose 1-50 µM, DDE = dose-dependent effect
SK-HEP1 [4] = experiment: Upregulation of E-cadherin expression level in TRBP siRNA transfected human SK-HEP1 cells incubated for 48 hrs by Western blotting analysis; format: functional, cell-based

CCOC(=O)c1nc(-c2ccc(OC)cc2)oc1C
Activity (SK-HEP1 [1]): Dde
Activity [2]: Non-Toxic
Activity (SK-HEP1 [3]): Dde
Activity (SK-HEP1 [4]): Active
